Measurements as given in BindingDB's records for doi:10.1016/j.bmcl.2004.08.038 (Glaxosmithkline, 2004).

Each molecule was assayed against T1, Dimer of Gag-Pol polyprotein [501-599,Q508K,L534I,L564I,C568A,C596A] (Human immunodeficiency virus 1, UniProt P03367, C568A/C596A/L534I/L564I/Q508K) (assay: Protease Inhibition Assay). Conditions: pH 6.4; 25 °C.
T1 construct: 501-599
Procedure: The Ki values were determined using fluorogenic substrate, 2-(aminobenzoyl)-Thr-Ile-Nle-Phe(p-NO2)-Gln-ArgNH2. A standard curve relating changes in fluorescent intensity to changes in concentration of product was used to convert fluorescent changes into molar velocities. The amount of cleavage was determined by HPLC.

In order of rising Ki:
1. O=C(N[C@H]1c2ccccc2C[C@H]1O)[C@H](Cc1ccccc1)C[C@H](O)CN1C(=O)N(Cc2cccc(F)c2)C[C@@H]1Cc1ccccc1 [(2R,4S)-2-benzyl-5-[(5S)-5-benzyl-3-[(3-fluorophenyl)methyl]-2-oxoimidazolidin-1-yl]-4-hydroxy-N-[(1S,2R)-2-hydroxy-2,3-dihydro-1H-inden-1-yl]pentanamide]  3.2 nM
2. COc1ccc(CN2C[C@H](Cc3ccccc3)N(C[C@@H](O)C[C@@H](Cc3ccccc3)C(=O)N[C@H]3c4ccccc4C[C@H]3O)C2=O)cc1 [(2R,4S)-2-benzyl-5-[(5S)-5-benzyl-3-[(4-methoxyphenyl)methyl]-2-oxoimidazolidin-1-yl]-4-hydroxy-N-[(1S,2R)-2-hydroxy-2,3-dihydro-1H-inden-1-yl]pentanamide]  5.6 nM
3. O=C(N[C@H]1c2ccccc2C[C@H]1O)[C@H](Cc1ccccc1)C[C@H](O)CN1C(=O)N(Cc2cccnc2)C[C@@H]1Cc1ccccc1 [(2R,4S)-2-benzyl-5-[(5S)-5-benzyl-2-oxo-3-(pyridin-3-ylmethyl)imidazolidin-1-yl]-4-hydroxy-N-[(1S,2R)-2-hydroxy-2,3-dihydro-1H-inden-1-yl]pentanamide]  18 nM
4. O=C(N[C@H]1c2ccccc2C[C@H]1O)[C@H](Cc1ccccc1)C[C@H](O)CN1C(=O)N(Cc2ccccn2)C[C@@H]1Cc1ccccc1 [(2R,4S)-2-benzyl-5-[(5S)-5-benzyl-2-oxo-3-(pyridin-2-ylmethyl)imidazolidin-1-yl]-4-hydroxy-N-[(1S,2R)-2-hydroxy-2,3-dihydro-1H-inden-1-yl]pentanamide]  41 nM
5. COc1cc(CN2C[C@H](Cc3ccccc3)N(C[C@@H](O)C[C@@H](Cc3ccccc3)C(=O)N[C@H]3c4ccccc4C[C@H]3O)C2=O)cc(OC)c1OC [(2R,4S)-2-benzyl-5-[(5S)-5-benzyl-2-oxo-3-[(3,4,5-trimethoxyphenyl)methyl]imidazolidin-1-yl]-4-hydroxy-N-[(1S,2R)-2-hydroxy-2,3-dihydro-1H-inden-1-yl]pentanamide]  100 nM
6. O=C(N[C@H]1c2ccccc2C[C@H]1O)[C@H](Cc1ccccc1)C[C@H](O)CN1C(=O)N(Cc2ccncc2)C[C@@H]1Cc1ccccc1 [(2R,4S)-2-benzyl-5-[(5S)-5-benzyl-2-oxo-3-(pyridin-4-ylmethyl)imidazolidin-1-yl]-4-hydroxy-N-[(1S,2R)-2-hydroxy-2,3-dihydro-1H-inden-1-yl]pentanamide]  190 nM
7. CS(=O)(=O)c1ccc(CN2C[C@H](Cc3ccccc3)N(C[C@@H](O)C[C@@H](Cc3ccccc3)C(=O)N[C@H]3c4ccccc4C[C@H]3O)C2=O)cc1 [(2R,4S)-2-benzyl-5-[(5S)-5-benzyl-3-[(4-methanesulfonylphenyl)methyl]-2-oxoimidazolidin-1-yl]-4-hydroxy-N-[(1S,2R)-2-hydroxy-2,3-dihydro-1H-inden-1-yl]pentanamide]  300 nM
